Dmax and DC50 data for 14 compounds are collected here from patent US20250206732A1, “COMPOUNDS AND METHODS FOR THE TARGETED DEGRADATION OF KRAS” (Arvinas Operations, Inc., priority 2022, published 2025).

The experiment concerns the target T1, AsPC-1 HiBiT-KRASG12D (Homo sapiens, UniProt P01116, G12D).
T1 construct: insert the HiBiT tag onto the N-terminus of one or more of the endogenous KRAS alleles; endogenous in cells; host or cells: AsPC-1 (ATCC CRL-1682), CRISPR-Cas9 knock-in clone, one tagged allele
The experiment is described as follows: HiBiT degradation assay (G12D), AsPC-1 HiBiT-KRASG12D cells. Format: cell-based. Particulars: 24 hours treatment; for Dmax: ASPC1, AsPC-1 HiBiT-KRASG12D cells, maximum degradation observed; for DC50: AsPC-1 HiBiT-KRASG12D cells, HiBiT luminescence. A digest of the protocol: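 AsPC-1 cells (homozygous G12D) carrying a CRISPR knock-in N-terminal HiBiT tag on endogenous KRAS were treated with compounds for 24 hours at 37° C, 5% CO2, in triplicate. Alamar blue viability was read first, then cells were washed and lysed with Nano-Glo HiBiT reagent for 45 minutes before luminescence reading.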
(In general: HiBiT is a short tag that completes a luciferase, so light tracks the accessible tagged protein.)

T1 sequence (P01116 1-188 isoform P01116-2 G12D): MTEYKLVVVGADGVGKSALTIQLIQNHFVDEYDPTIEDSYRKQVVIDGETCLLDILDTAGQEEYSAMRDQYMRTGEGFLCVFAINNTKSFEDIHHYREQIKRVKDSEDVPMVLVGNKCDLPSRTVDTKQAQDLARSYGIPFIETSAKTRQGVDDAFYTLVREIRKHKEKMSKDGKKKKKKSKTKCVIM

The Dmax is the largest share of the target that was removed. A word on the DC50: it is the midpoint of the concentration-degradation curve. Lower therefore signals degradation at low concentration. Take `CCc1cccc2cc(O)cc(-c3ncc4c(N5CC6CCC(C5)N6)nc(OC[C@]56CCCN5[C@H](COC(=O)N5C[C@H](C)N(c7cc([C@@H](C(=O)N8C[C@H](O)C[C@H]8C(=O)N[C@@H](C)c8ccc(-c9scnc9C)cc8)C(C)C)on7)C[C@H]5C)CC6)nc4c3F)c12` [Compound 302, [(3S,8R)-8-[[4-(3,8-diazabicyclo[3.2.1]octan-3-yl)-7-(8-ethyl-3-hydroxy-1-naphthyl)-8-fluoro-pyrido[4,3-d]pyrimidin-2-yl]oxymethyl]-1,2,3,5,6,7-hexahydropyrrolizin-3-yl]methyl (2R,5S)-4-[5-[(1S)-1-[(2S,4R)-4-hydroxy-2-[[(1S)-1-[4-(4-methylthiazol-5-yl)phenyl]ethyl]carbamoyl]pyrrolidine-1-carbonyl]-2-methyl-propyl]isoxazol-3-yl]-2,5-dimethyl-piperazine-1-carboxylate]: the Dmax was 20 to 60% and the 50% degradation concentration (DC50) is 1000 to 3000 nM.

The compound `C#Cc1c(F)ccc2cc(O)cc(-c3ncc4c(N5CC6CCC(C5)N6)nc(OC[C@]56CCCN5[C@H](COC(=O)N5CC(Oc7cc([C@@H](C(=O)N8C[C@H](O)C[C@H]8C(=O)N[C@@H](C)c8ccc(-c9scnc9C)cc8)C(C)C)on7)C5)CC6)nc4c3F)c12` [Compound 303] displayed a Dmax of 60 to 80% and a DC50 of less than 600 nM.

Take `CCc1cccc2cncc(-c3ncc4c(N5CC6CCC(C5)N6)nc(OCCN5CCC(COc6cc([C@H](C(=O)N7C[C@H](O)C[C@H]7C(=O)N[C@@H](C)c7ccc(-c8scnc8C)cc7)C(C)C)on6)CC5)nc4c3F)c12` [Compound 304]: the DC50 was more than 3000 nM. `CCc1cccc2cc(O)cc(-c3ncc4c(N5CCCCCC5)nc(OC[C@]56CCCN5[C@H](COC(=O)N5CC(Oc7cc([C@@H](C(=O)N8C[C@H](O)C[C@H]8C(=O)N[C@@H](C)c8ccc(-c9scnc9C)cc8)C(C)C)on7)C5)CC6)nc4c3F)c12` [Compound 305] showed a maximal degradation (Dmax) of 20 to 60% and a DC50 of 600 to 1000 nM.

`Cc1ncsc1-c1ccc([C@H](C)NC(=O)[C@@H]2C[C@@H](O)CN2C(=O)[C@@H](c2cc(OC3CN(C(=O)OC[C@@H]4CC[C@@]5(COc6nc(N7CC8CCC(C7)N8)c7cnc(-c8cc(O)cc(Cl)c8C8CC8)c(F)c7n6)CCCN45)C3)no2)C(C)C)cc1` [Compound 306] had a Dmax of 80 to 100% and a DC50 of less than 600 nM.

Compound `CCc1cccc2cccc(-c3ncc4c(N5CC6CCC(C5)N6)nc(OC[C@]56CCCN5[C@H](COc5cc([C@H](C(=O)N7C[C@H](O)C[C@H]7C(=O)N[C@@H](C)c7ccc(-c8scnc8C)cc7)C(C)C)on5)CC6)nc4c3F)c12` [Compound 309, (2S,4R)-1-[(2R)-2-[3-[[(3S,8R)-8-[[4-(3,8-diazabicyclo[3.2.1]octan-3-yl)-7-(8-ethyl-1-naphthyl)-8-fluoro-pyrido[4,3-d]pyrimidin-2-yl]oxymethyl]-1,2,3,5,6,7-hexahydropyrrolizin-3-yl]methoxy]isoxazol-5-yl]-3-methyl-butanoyl]-4-hydroxy-N-[(1S)-1-[4-(4-methylthiazol-5-yl)phenyl]ethyl]pyrrolidine-2-carboxamide] came in with a Dmax of less than 20% and a DC50 of less than 600 nM. For `CCc1cccc2cccc(-c3ncc4c(N5CC6CCC(C5)N6)nc(OC[C@]56CCCN5[C@H](COc5cc([C@@H](C(=O)N7C[C@H](O)C[C@H]7C(=O)N[C@@H](C)c7ccc(-c8scnc8C)cc7)C(C)C)on5)CC6)nc4c3F)c12` [Compound 310, (2S,4R)-1-[(2S)-2-[3-[[(3S,8R)-8-[[4-(3,8-diazabicyclo[3.2.1]octan-3-yl)-7-(8-ethyl-1-naphthyl)-8-fluoro-pyrido[4,3-d]pyrimidin-2-yl]oxymethyl]-1,2,3,5,6,7-hexahydropyrrolizin-3-yl]methoxy]isoxazol-5-yl]-3-methyl-butanoyl]-4-hydroxy-N-[(1S)-1-[4-(4-methylthiazol-5-yl)phenyl]ethyl]pyrrolidine-2-carboxamide], the Dmax lay within 80 to 100% and the DC50 is less than 600 nM.

The compound `C#Cc1c(F)ccc2cc(O)cc(-c3ncc4c(N5CC6CCC(C5)N6)nc(OC[C@]56CCCN5[C@H](COc5cc([C@H](C(=O)N7C[C@H](O)C[C@H]7C(=O)N[C@@H](C)c7ccc(-c8scnc8C)cc7)C(C)C)on5)CC6)nc4c3F)c12` [Compound 311, (2S,4R)-1-[(2R)-2-[3-[[(3S,8R)-8-[[4-(3,8-diazabicyclo[3.2.1]octan-3-yl)-7-(8-ethynyl-7-fluoro-3-hydroxy-1-naphthyl)-8-fluoro-pyrido[4,3-d]pyrimidin-2-yl]oxymethyl]-1,2,3,5,6,7-hexahydropyrrolizin-3-yl]methoxy]isoxazol-5-yl]-3-methyl-butanoyl]-4-hydroxy-N-[(1S)-1-[4-(4-methylthiazol-5-yl)phenyl]ethyl]pyrrolidine-2-carboxamide] showed a Dmax of 80 to 100% and a DC50 of less than 600 nM.

`C#Cc1c(F)ccc2cc(O)cc(-c3ncc4c(N5CC6CCC(C5)N6)nc(OC[C@]56CCCN5[C@H](COc5cc([C@@H](C(=O)N7C[C@H](O)C[C@H]7C(=O)N[C@@H](C)c7ccc(-c8scnc8C)cc7)C(C)C)on5)CC6)nc4c3F)c12` [Compound 312, (2S,4R)-1-[(2S)-2-[3-[[(3S,8R)-8-[[4-(3,8-diazabicyclo[3.2.1]octan-3-yl)-7-(8-ethynyl-7-fluoro-3-hydroxy-1-naphthyl)-8-fluoro-pyrido[4,3-d]pyrimidin-2-yl]oxymethyl]-1,2,3,5,6,7-hexahydropyrrolizin-3-yl]methoxy]isoxazol-5-yl]-3-methyl-butanoyl]-4-hydroxy-N-[(1S)-1-[4-(4-methylthiazol-5-yl)phenyl]ethyl]pyrrolidine-2-carboxamide] displayed a Dmax of 20 to 60% and a DC50 of 1000 to 3000 nM.

Take `C#Cc1c(F)ccc2cc(O)cc(-c3ncc4c(N5CC6CCC(C5)N6)nc(OCCN5CCC(C)(COc6cc([C@H](C(=O)N7C[C@H](O)C[C@H]7C(=O)N[C@@H](C)c7ccc(-c8scnc8C)cc7)C(C)C)on6)CC5)nc4c3F)c12` [Compound 313, (2S,4R)-1-[(2R)-2-{3-[(1-{2-[(4-{3,8-diazabicyclo[3.2.1]octan-3-yl}-7-(8-ethynyl-7-fluoro-3-hydroxynaphthalen-1-yl)-8-fluoropyrido[4,3-d]pyrimidin-2-yl)oxy]ethyl}-4-methylpiperidin-4-yl)methoxy]-1,2-oxazol-5-yl}-3-methylbutanoyl]-4-hydroxy-N-[(1S)-1-[4-(4-methyl-1,3-thiazol-5-yl)phenyl]ethyl]pyrrolidine-2-carboxamide]: the Dmax lay within 80 to 100% and the half-maximal degradation concentration (DC50) was less than 600 nM. Compound `C#Cc1c(F)ccc2cc(O)cc(-c3ncc4c(N5CC6CCC(C5)N6)nc(OC[C@@]56CCCN5[C@H](COc5cc([C@H](C(=O)N7C[C@H](O)C[C@H]7C(=O)N[C@@H](C)c7ccc(-c8scnc8C)cc7)C(C)C)on5)CC6)nc4c3F)c12` [Compound 314, (2S,4R)-1-[(2R)-2-[3-[[(3S,8S)-8-[[4-(3,8-diazabicyclo[3.2.1]octan-3-yl)-7-(8-ethynyl-7-fluoro-3-hydroxy-1-naphthyl)-8-fluoro-pyrido[4,3-d]pyrimidin-2-yl]oxymethyl]-1,2,3,5,6,7-hexahydropyrrolizin-3-yl]methoxy]isoxazol-5-yl]-3-methyl-butanoyl]-4-hydroxy-N-[(1S)-1-[4-(4-methylthiazol-5-yl)phenyl]ethyl]pyrrolidine-2-carboxamide] gave a Dmax of 80 to 100% and a 50% degradation concentration (DC50) of less than 600 nM. For `C#Cc1c(F)ccc2cc(O)cc(-c3ncc4c(N5CC6CCC(C5)N6)nc(OC[C@@]56CCCN5[C@H](COc5cc([C@@H](C(=O)N7C[C@H](O)C[C@H]7C(=O)N[C@@H](C)c7ccc(-c8scnc8C)cc7)C(C)C)on5)CC6)nc4c3F)c12` [Compound 315, (2S,4R)-1-[(2S)-2-[3-[[(3S,8S)-8-[[4-(3,8-diazabicyclo[3.2.1]octan-3-yl)-7-(8-ethynyl-7-fluoro-3-hydroxy-1-naphthyl)-8-fluoro-pyrido[4,3-d]pyrimidin-2-yl]oxymethyl]-1,2,3,5,6,7-hexahydropyrrolizin-3-yl]methoxy]isoxazol-5-yl]-3-methyl-butanoyl]-4-hydroxy-N-[(1S)-1-[4-(4-methylthiazol-5-yl)phenyl]ethyl]pyrrolidine-2-carboxamide], the DC50 is more than 3000 nM. `C#Cc1c(F)ccc2cccc(-c3ncc4c(N5CC6CCC(C5)N6)nc(OC[C@]56CCCN5[C@H](COc5cc([C@H](C(=O)N7C[C@H](O)C[C@H]7C(=O)N[C@@H](C)c7ccc(-c8scnc8C)cc7)C(C)C)on5)CC6)nc4c3F)c12` [Compound 316, (2S,4R)-1-[(2S)-2-[3-[[(3S,8R)-8-[[4-(3,8-diazabicyclo[3.2.1]octan-3-yl)-7-(8-ethynyl-7-fluoro-1-naphthyl)-8-fluoro-pyrido[4,3-d]pyrimidin-2-yl]oxymethyl]-1,2,3,5,6,7-hexahydropyrrolizin-3-yl]methoxy]isoxazol-5-yl]-3-methyl-butanoyl]-4-hydroxy-N-[(1S)-1-[4-(4-methylthiazol-5-yl)phenyl]ethyl]pyrrolidine-2-carboxamide] gave a maximal degradation (Dmax) of 20 to 60% and a DC50 of less than 600 nM. Consider `C#Cc1c(F)ccc2cccc(-c3ncc4c(N5CC6CCC(C5)N6)nc(OC[C@]56CCCN5[C@H](COc5cc([C@@H](C(=O)N7C[C@H](O)C[C@H]7C(=O)N[C@@H](C)c7ccc(-c8scnc8C)cc7)C(C)C)on5)CC6)nc4c3F)c12` [Compound 317, (2S,4R)-1-[(2R)-2-[3-[[(3S,8R)-8-[[4-(3,8-diazabicyclo[3.2.1]octan-3-yl)-7-(8-ethynyl-7-fluoro-1-naphthyl)-8-fluoro-pyrido[4,3-d]pyrimidin-2-yl]oxymethyl]-1,2,3,5,6,7-hexahydropyrrolizin-3-yl]methoxy]isoxazol-5-yl]-3-methyl-butanoyl]-4-hydroxy-N-[(1S)-1-[4-(4-methylthiazol-5-yl)phenyl]ethyl]pyrrolidine-2-carboxamide], for which the Dmax was in the range of 80 to 100% and the 50% degradation concentration (DC50) is less than 600 nM.
